How the values were obtained:
[1] = test system: A2780 ovarian cancer cells; assay: MTT cytotoxicity test on A2780 ovarian cancer cells; type: cell-based; settings: A2780 ovarian cancer cell line, 72 hours incubation
Procedure: (§1) The biological (cytotoxicity) properties of the complexes synthesized above were tested on A2780 and A2780cisR (cisplatin-resistant) ovarian cancer cells according to a conventional procedure described below, and the IC50 values obtained were compared with those obtained under the same conditions with the cisplatin complex Pt (NH3)2Cl2.
(§2) The A2780 and A2780cisR ovarian cancer cell lines were obtained from The European Collection of Cell Cultures (ECACC) (Salisbury, UK). The cells were cultured in RPMI medium comprising glucose, 5% of fetal calf serum (FCS) and antibiotics, at 37° C. and 5% CO2.
(§3) The cytotoxicity was determined using the MTT (3-(4,5-dimethyl-2-thiazolyl)-2,5-diphenyl-2H-tetrazolium bromide) test (MOSMANN, 1983).
(§4) The cells were distributed in 96-well plates, as monolayers, with 100 μl of solution (approximately 20 000 cells) per well, and were preincubated for 24 hours in a medium supplemented with 10% of FCS.
(§5) The compounds were prepared in DMSO solution, were then dissolved in the culture medium and were successively diluted to the appropriate concentration, in order to obtain a final DMSO concentration of 0.5%. 100 μl of solution of these compounds were added to each well and the plates were incubated for 72 hours. Subsequently, MTT (5 mg/ml) was added to the cells and the plates were incubated for 2 hours. The culture medium was removed by suction and the purple formazan crystals formed by the mitochondrial dehydrogenase activity of the living cells were dissolved in DMSO.
(§6) The optical density, which is directly proportional to the number of living cells, was quantified at 540 nm using a multiwell plate reader and the fraction of living cells was quantified from the absorbance of untreated control cells. Evaluation was carried out from two independent experiments, each comprising 3 microcultures per concentration level.

[2] = test system: A2780cisR (cisplatin-resistant) ovarian cancer cells; assay: MTT cytotoxicity test on A2780cisR (cisplatin-resistant) ovarian cancer cells; type: cell-based; settings: A2780cisR (cisplatin-resistant) cell line, 72 hours incubation
Procedure: as §1, §2, §3, §4, §5, §6

Molecule | IC50 [1] [µM] | IC50 [2] [µM]
N.N.[Cl][Pt][Cl] [cis-[Pt(NH3)2Cl2], cis-diamminedichloroplatinum(II)] | 3 | 25
o-[(C5Me5)Ir(η^4-benzoquinone)] [compound 3] | > 400 | –
o-[(C5Me5)Ir(η^4-dithiobenzoquinone)] [compound 5] | 49 | –
o-[(C5Me5)Rh(η^4-benzoquinone)] [compound 1] | > 400 | –
p-[(C5Me5)Ir(η^4-2,5-dimethyldiselenobenzoquinone)] [compound 10] | 6.2 | 7.3
p-[(C5Me5)Ir(η^4-benzoquinone)] [compound 4] | 93 | –
p-[(C5Me5)Ir(η^4-diselenobenzoquinone)] [compound 8] | 5 | –
p-[(C5Me5)Ir(η^4-dithiobenzoquinone)] [compound 6] | 154 | –
p-[(C5Me5)Ir(η^4-monoselenobenzoquinone)] [compound 9] | 12.3 | 8.4
p-[(C5Me5)Rh(η^4-benzoquinone)] [compound 2] | > 400 | –
